From PubChem BioAssay (NCI)
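Exposure lasted 48 hours, with cells grown in 96-well plates and compounds tested at five concentrations. GI50 = concentration required for 50% inhibition of growth. TGI denotes the concentration required for complete inhibition of growth.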

Experiments:
Experiment in all cases: growth of human tumour cells (NCI), 48 h
[1] = test system: HCT-15 colon
[2] = test system: HT29 colon
[3] = test system: IGROV1 ovarian
[4] = test system: NCI-H460 lung
[5] = test system: NCI-H522 lung
[6] = test system: OVCAR-8 ovarian
[7] = test system: SF-539 CNS
[8] = test system: SN12C renal
[9] = test system: SNB-19 CNS
[10] = test system: SR leukemia

Compound: CC1=C(CCCNS(C)(=O)=O)C2=C(C)C3(CC3)[C@@](C)(O)C(=O)C2=C1
- GI50 [1]: 1.23 µM
- TGI [1]: > 100 µM
- GI50 [2]: 1.87 µM
- TGI [2]: > 100 µM
- GI50 [3]: 0.259 µM
- TGI [3]: 1.15 µM
- GI50 [4]: 0.266 µM
- TGI [4]: 0.812 µM
- GI50 [5]: 2.09 µM
- TGI [5]: 7.7 µM
- GI50 [6]: 0.518 µM
- TGI [6]: 5.36 µM
- GI50 [7]: 0.969 µM
- TGI [7]: 3.26 µM
- GI50 [8]: 1.78 µM
- TGI [8]: > 100 µM
- GI50 [9]: 1.93 µM
- TGI [9]: > 100 µM
- GI50 [10]: 36.2 µM
- TGI [10]: > 100 µM

Compound: COc1ccc(CNc2cc(OC)c(OC)c(OC)c2)cc1
- TGI [1]: > 100 µM
- TGI [2]: > 100 µM
- TGI [3]: > 100 µM
- TGI [4]: > 30 µM
- TGI [5]: 31 µM
- TGI [6]: > 100 µM
- TGI [7]: 35.1 µM
- TGI [8]: > 100 µM
- TGI [9]: > 100 µM
- TGI [10]: > 100 µM

Compound: Cc1ccc(S(=O)(=O)N(CCOc2ccc(/C(N)=N/Cl)cc2)CCOc2ccc(/C(N)=N\Cl)cc2)cc1
- GI50 [1]: > 100 µM
- TGI [1]: > 100 µM
- GI50 [2]: 9.8 µM
- TGI [2]: > 100 µM
- GI50 [3]: 11.7 µM
- TGI [3]: 40.7 µM
- GI50 [4]: 5.62 µM
- TGI [4]: 25.2 µM
- GI50 [5]: 13.3 µM
- TGI [5]: 76.4 µM
- GI50 [6]: 12 µM
- TGI [6]: > 100 µM
- GI50 [7]: 11 µM
- TGI [7]: 27.2 µM
- GI50 [8]: 5.52 µM
- TGI [8]: > 100 µM
- GI50 [9]: 5.65 µM
- TGI [9]: > 100 µM
- GI50 [10]: 27.8 µM
- TGI [10]: > 100 µM

Compound: O=C(CN1CCOCC1)Nc1ccc(Cn2nnc3c2C(=O)c2nnn(Cc4ccc(NC(=O)CN5CCOCC5)cc4)c2C3=O)cc1
- GI50 [1]: 7.42 µM
- TGI [1]: > 100 µM
- GI50 [2]: 0.364 µM
- TGI [2]: 1.53 µM
- GI50 [3]: 0.361 µM
- TGI [3]: 1.64 µM
- GI50 [4]: 0.378 µM
- TGI [4]: 5.48 µM
- GI50 [5]: 0.191 µM
- TGI [5]: 0.587 µM
- GI50 [6]: 0.358 µM
- TGI [6]: 1.33 µM
- GI50 [7]: 0.304 µM
- TGI [7]: 1.07 µM
- GI50 [8]: 0.259 µM
- TGI [8]: 0.733 µM
- GI50 [9]: 0.41 µM
- TGI [9]: 1.57 µM
- GI50 [10]: 0.516 µM
- TGI [10]: 3.97 µM

Compound: CCNCCNc1cc(-c2ccc(C(=O)OC)cc2)c(C#N)c2nc3ccccc3n12
- GI50 [1]: 1.47 µM
- TGI [1]: 4.65 µM
- GI50 [2]: 1.6 µM
- TGI [2]: 4.47 µM
- GI50 [3]: 2.38 µM
- TGI [3]: > 100 µM
- GI50 [4]: 1.42 µM
- TGI [4]: 3.31 µM
- GI50 [5]: 1.72 µM
- TGI [5]: 4.52 µM
- GI50 [6]: 2.13 µM
- TGI [6]: 5.32 µM
- GI50 [7]: 1.74 µM
- TGI [7]: 3.33 µM
- GI50 [8]: 2.68 µM
- TGI [8]: 8.33 µM
- GI50 [9]: 4.57 µM
- TGI [9]: > 100 µM
- GI50 [10]: 0.24 µM
- TGI [10]: 0.613 µM

Compound: CN(C)CCNc1cc(-c2ccccc2)nc2ccccc12
- GI50 [1]: 4.48 µM
- TGI [1]: 62.5 µM
- GI50 [2]: 4.01 µM
- TGI [2]: 16.7 µM
- GI50 [3]: 6.57 µM
- TGI [3]: 35.1 µM
- GI50 [4]: 3.5 µM
- TGI [4]: 12.8 µM
- GI50 [5]: 8.11 µM
- TGI [5]: 27.8 µM
- GI50 [6]: 4.1 µM
- TGI [6]: 22 µM
- GI50 [7]: 8.22 µM
- TGI [7]: 22.7 µM
- GI50 [8]: 6.55 µM
- TGI [8]: 44.1 µM
- GI50 [9]: 14.6 µM
- TGI [9]: 49.7 µM
- GI50 [10]: 2.72 µM
- TGI [10]: 8.37 µM

Compound: O=C1/C(=C/c2ccc(Br)cc2)C=C(c2ccccc2)N1CCc1ccccc1
- GI50 [1]: 11.7 µM
- TGI [1]: > 100 µM
- GI50 [2]: 4.73 µM
- TGI [2]: > 100 µM
- GI50 [3]: 1.71 µM
- TGI [3]: 12 µM
- GI50 [4]: 0.906 µM
- TGI [4]: 10.2 µM
- GI50 [5]: 6.54 µM
- TGI [5]: 87.1 µM
- GI50 [6]: 1.04 µM
- TGI [6]: 10 µM
- GI50 [7]: 1.77 µM
- TGI [7]: 5.57 µM
- GI50 [8]: 2.15 µM
- TGI [8]: 20.4 µM
- GI50 [9]: 1.21 µM
- TGI [9]: 5.03 µM
- GI50 [10]: 11.6 µM
- TGI [10]: > 100 µM

Compound: O=C(O)Cn1ccc(=O)c2ccc([N+](=O)[O-])cc21
- TGI [1]: > 100 µM
- TGI [2]: > 100 µM
- TGI [3]: > 100 µM
- TGI [4]: > 100 µM
- TGI [5]: > 100 µM
- TGI [6]: > 100 µM
- TGI [7]: > 100 µM
- TGI [8]: > 100 µM
- TGI [9]: > 100 µM
- TGI [10]: > 100 µM

Compound: COc1ccc2cc1Oc1ccc(cc1)CC1c3cc(c(OC)cc3CCN1C)Oc1c3c(cc4c1C(C2)N(C)CC4)OCO3 (stereo not given)
- TGI [1]: 14.7 µM
- TGI [2]: 8.25 µM
- TGI [3]: 28.8 µM
- TGI [4]: 28.4 µM
- TGI [5]: 20.3 µM
- TGI [6]: 21.1 µM
- TGI [7]: 6.03 µM
- TGI [8]: 23.7 µM
- TGI [9]: 31.5 µM
- TGI [10]: 28.2 µM

Compound: CC1CCC2(C(=O)O)CCC3(C)C(=CCC4C5(C)CC(O)C(O)C(C)(CO)C5C(O)CC43C)C2C1C (stereo not given)
- TGI [1]: > 100 µM
- TGI [2]: > 100 µM
- TGI [3]: 35.9 µM
- TGI [4]: > 100 µM
- TGI [5]: 33.9 µM
- TGI [6]: 42.6 µM
- TGI [7]: 75.9 µM
- TGI [8]: 25.8 µM
- TGI [9]: 56.1 µM
- TGI [10]: > 63.1 µM

Compound: CC1OC(O[C@H]2C[C@@H](O)[C@]3(CO)[C@H]4[C@H](O)C[C@]5(C)[C@@H](C6=CC(=O)OC6)CC[C@]5(O)[C@@H]4CC[C@]3(O)C2)C(O)C(O)C1O (stereo not given in full)
- GI50 [1]: 17.3 µM
- TGI [1]: 31.9 µM
- GI50 [2]: 19.5 µM
- TGI [2]: 36 µM
- GI50 [3]: 19.7 µM
- TGI [3]: 36.7 µM
- GI50 [4]: 19.1 µM
- TGI [4]: 35.4 µM
- GI50 [5]: 17.8 µM
- TGI [5]: 32.5 µM
- GI50 [6]: 19.2 µM
- TGI [6]: 34.8 µM
- GI50 [7]: 21.4 µM
- TGI [7]: 39.5 µM
- GI50 [8]: 20.6 µM
- TGI [8]: 40.6 µM
- GI50 [9]: 18.3 µM
- TGI [9]: 33.6 µM
- GI50 [10]: 10.2 µM
- TGI [10]: 38 µM

Compound: Cn1c(N2NC(=O)C(N=Nc3ccc(S(N)(=O)=O)cc3)C2=O)nc(-c2ccco2)c(C#N)c1=O (stereo not given)
- GI50 [1]: 8.44 µM
- TGI [1]: 22.1 µM
- GI50 [2]: 33.4 µM
- TGI [2]: > 50 µM
- GI50 [3]: > 50 µM
- TGI [3]: > 50 µM
- GI50 [4]: > 50 µM
- TGI [4]: > 50 µM
- GI50 [5]: 5.42 µM
- TGI [5]: 26.5 µM
- GI50 [6]: > 50 µM
- TGI [6]: > 50 µM
- GI50 [7]: > 50 µM
- TGI [7]: > 50 µM
- GI50 [8]: > 50 µM
- TGI [8]: > 50 µM
- GI50 [9]: > 50 µM
- TGI [9]: > 50 µM
- GI50 [10]: 2.89 µM
- TGI [10]: 28.4 µM
